Assays:
ALPK1 [1] = target: T1, ALPK1 (Homo sapiens, UniProt Q96QP1); test: Cell-free kinase assay of ALPK1-dependent phosphorylation of IκB; type: biochemical; settings: 2 nM ALPK1, with or without ATP, 1 hour
Experimental: We next tested whether H1b-ADP-induced autophosphorylation of ALPK1 was effective to activate NFκB using phosphorylation of IκB as a marker for this activity. Phosphorylation assays were performed according to standard protocols and phosphorylated protein was detected by gel electrophoresis and Western blotting using an antibody that detects phosphorylated IκB. Briefly, assays were performed in a 20 μl volume at 25° C. in assay buffer (25 mM HEPES pH 7.5, 50 mM KCl, 0.1 mM EDTA, 0.1 mM EGTA, 2 mM DTT, 1.5 mM CaCl2, 10 mM MgCl2) containing 2 nM ALPK1 and H1b-ADP […] with or without ATP, or either ALPK1 alone or H1b-ADP alone, both in the presence of ATP. After 1 hour of incubation, the reaction was loaded to denaturing gel for protein electrophoresis and Western was performed to detect phosphorylation of 1 kB using p-IkB antibody (Abcam).

CT26 cells = test: mRNA expression in CT26 tumor tissue after intratumoral injection (qPCR); type: in vivo, BALB/c mice; settings: H1b-ADP 2.5 μg, 250 ng, 50 ng intratumoral, 4 hours post-injection
Experimental: We next asked whether H1b-ADP caused an increase in pro-inflammatory cytokines within the tumor. Tumor cells (2×10^5 per 100 μL CT26 cells) were inoculated subcutaneously into the right flank of BALB/c mice. 2.5 μg (n=2), 250 ng (n=2), 50 ng (n=2) of H1b-ADP or control (n=2) was intratumorally injected (20 uL) at day 7 post inoculation. 4 hours post-injection, tumor issues were dissected and harvested. Total RNA was isolated (TRIzol™, ThermoFisher) and cDNA was synthesized (PrimeScript™ RT reagent Kit, Takara) and amplified (AceQ™ qPCR SYBR™ Green Master Mix, Vazyme Biotech using a QuantStudio™ 7 Flex Real-Time PCR Systems (ThermoFisher) according to manufacturers' protocols.

[2] = tested on: phosphatase activity in the serum; test: Incubation of H1b-ADP with FBS, product analysed by LC-MS; type: in vitro ADME, bovine; settings: increasing incubation time, LC-MS; product determined to be AMP
Text: FBS contains 110-352 μU/ml alkaline phosphatase.

[3] = tested on: mouse bone marrow-derived macrophages; test: Cxcl1 mRNA expression in bone marrow-derived macrophages (qPCR); type: cell-based; settings: 0.4 nM or 2 nM H1b-ADP, 2.5 hours
Experimental: In these experiments, mouse bone marrow-derived macrophages were treated with 0.4 nM or 2 nM H1b-ADP for 2.5 hours and harvested for mRNA expression analysis of Cxcl1 by qPCR. […] Accordingly, very low doses of H1b-ADP, or an agonist thereof, may be used to enhance or potentiate an immune response in a local tissue.

ALPK1 [4] = target: T1, ALPK1; test: IL8 secretion in HEK293 cells (IL8 ELISA) as indicator of ALPK1 activation; settings: cells cultured with fetal bovine, human or mouse serum
Experimental: Phosphatase such as the alkaline phosphatase may be responsible for H1b-ADP hydrolysis. We pre-mixed H1b-ADP with phosphatase inhibitor sodium orthovanadate (Na3VO4) before incubation with FBS. […] We hypothesized that the accumulation of hydrolysis product AMP can inhibit phosphatase activity.
A number of H1b-ADP derivative compounds were made as described herein and tested for biological activity as agonists of ALPK1 in vitro. In these experiments, serial dilutions of the compounds were added to the tissue culture media of HEK293 cells with (FIG. 27B, FIG. 28B, FIG. 29B) or without (FIG. 26, FIG. 27A, FIG. 28A, FIG. 29A) 10% FBS, as indicated in the figures. After 4 hours, the cell supernatant was collected and analyzed for IL8 concentration using IL8 ELISA (BD) as an indicator of ALPK1 activation.

ALPK1 [5] = target: T1, ALPK1; test: IL-8 and TNFα mRNA expression in HEK293 cells with control or ALPK1-directed siRNA (qPCR); type: cell-based; set-up: silence ALPK1 expression in HEK293 cells; endogenous in cells; host or cells: HEK293; settings: control vs ALPK1-directed siRNA, 4 hours, HBP 500, 100, 20 uM, HMP-1bP 500, 100 uM, H1b-ADP 100, 20, 4, 0.8 nM
Experimental: To test whether HBP, HMP-1bP, and H1b-ADP were able to induce cytokine expression in an ALPK1 dependent manner, we used an ALPK1-directed small interfering RNA (siRNA) to silence ALPK1 expression in HEK293 cells. Cells were plated (1×10^4 cells/well) into 96-well plates and transfected with either control siRNA or ALPK1-directed siRNA according to the manufacturer's protocols (Lipofectamine™ RNAiMax™, Invitrogen 13778075). Following 2 days of culture, either (1) HBP (500 uM, 100 uM, 20 uM, FIG. 2A-2B) (2) HMP-1bP (500 uM, 100 uM, FIG. 3A-3B), (3) H1b-ADP (100 nM, 20 nM, 4 nM, 0.8 nM, FIG. 4A-4B) was added to culture medium and cells were harvested 4 hours later.

ALPK1 [6] = target: T1, ALPK1; test: Thermal shift assay (SYPRO Orange) for binding to ALPK1; settings: ALPK1 7 uM; 1, 5, 25, 125 uM compound; H1b-ADP shift at 5, 25 and 125 uM
Text: The thermal shift assay is widely used to determine the binding of a molecule to a protein of interest. The assay is based on the increase in thermal energy required for denaturation of a protein where another molecule is bound to the protein. SYPRO Orange is a fluorescent compound used in the detection of thermal shift. SYPRO Orange binds to hydrophobic surfaces of the protein, and water strongly quenches its fluorescence. When the protein unfolds, the exposed hydrophobic surfaces bind the dye, resulting in an increase in fluorescence. When another molecule is bound to the protein, an increase in the temperature required for unfolding of the protein is observed.
This assay system was used to determine whether or not chemically synthesized HBP, HMP-1bP, and H1b-ADP directly bind to ALPK1. […] Only H1b-ADP induced a shift of more than 1 degree, at each of the three highest concentrations tested, 5 uM, 25 uM, and 125 uM.

T1 sequence (Q96QP1 whole entry): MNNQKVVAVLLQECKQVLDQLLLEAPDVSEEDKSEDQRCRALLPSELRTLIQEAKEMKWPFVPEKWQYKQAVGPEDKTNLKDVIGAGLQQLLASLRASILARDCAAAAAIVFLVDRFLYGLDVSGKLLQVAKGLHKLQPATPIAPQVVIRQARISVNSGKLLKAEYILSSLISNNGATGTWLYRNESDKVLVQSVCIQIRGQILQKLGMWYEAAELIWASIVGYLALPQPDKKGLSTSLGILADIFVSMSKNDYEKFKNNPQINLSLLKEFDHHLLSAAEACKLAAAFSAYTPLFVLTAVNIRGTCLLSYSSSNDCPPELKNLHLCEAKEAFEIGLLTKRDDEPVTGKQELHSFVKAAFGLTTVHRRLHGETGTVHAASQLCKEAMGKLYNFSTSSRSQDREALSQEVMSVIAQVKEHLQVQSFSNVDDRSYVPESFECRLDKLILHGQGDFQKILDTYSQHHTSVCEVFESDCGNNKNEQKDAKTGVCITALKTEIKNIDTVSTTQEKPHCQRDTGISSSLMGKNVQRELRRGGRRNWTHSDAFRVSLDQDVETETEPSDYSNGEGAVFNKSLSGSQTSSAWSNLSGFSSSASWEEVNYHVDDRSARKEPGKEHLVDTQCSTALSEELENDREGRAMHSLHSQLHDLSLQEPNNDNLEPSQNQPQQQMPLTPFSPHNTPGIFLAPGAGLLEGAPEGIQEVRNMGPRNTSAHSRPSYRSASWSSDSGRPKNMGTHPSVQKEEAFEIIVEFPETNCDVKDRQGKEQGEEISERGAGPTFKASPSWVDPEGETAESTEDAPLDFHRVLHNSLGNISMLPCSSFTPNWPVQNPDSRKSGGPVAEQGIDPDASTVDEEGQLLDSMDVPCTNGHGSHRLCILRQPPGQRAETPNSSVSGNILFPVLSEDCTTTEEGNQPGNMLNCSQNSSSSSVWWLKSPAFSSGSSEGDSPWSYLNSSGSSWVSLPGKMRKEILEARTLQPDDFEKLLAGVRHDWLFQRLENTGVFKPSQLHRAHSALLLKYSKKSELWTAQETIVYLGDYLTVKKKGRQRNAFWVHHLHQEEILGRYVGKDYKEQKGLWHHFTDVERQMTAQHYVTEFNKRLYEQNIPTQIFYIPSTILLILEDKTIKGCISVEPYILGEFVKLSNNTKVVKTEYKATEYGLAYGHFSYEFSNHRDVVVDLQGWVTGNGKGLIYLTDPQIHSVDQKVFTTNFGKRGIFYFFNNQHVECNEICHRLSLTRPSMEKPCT

| Compound | IκB phosphorylation (ALPK1 [1]) | PD-1 and PD-L1 expression in tumor (CT26 cells) | mRNA expression of CD8, CD4, Foxp3 and T-bet in tumor (CT26 cells) | mRNA expression of inflammatory cytokine IL-1b, Tnfa, Ifn gamma, and IL-6, and chemokine Cxcl1 in tumor (CT26 cells) | H1b-ADP amount on incubation with FBS [2] | Cxcl1 mRNA expression, fold change over non-treated control [3] | H1b-ADP's activity to activate ALPK1 in HEK293 cells (IL8 secretion) (ALPK1 [4]) | IL-8 mRNA expression (ALPK1 [5]) | TNFα mRNA expression (ALPK1 [5]) | thermal shift of ALPK1 (ALPK1 [6]) |
| --- | --- | --- | --- | --- | --- | --- | --- | --- | --- | --- |
| Nc1ncnc2c1ncn2[C@@H]1O[C@H](COP(=O)(O)OP(=O)(O)O[C@@H]2O[C@H]([C@H](O)CO)[C@@H](O)[C@H](O)[C@@H]2O)[C@@H](O)[C@H]1O [Compound H1b-ADP, D-glycero-D-manno-heptose-1β-ADP] | IkB phosphorylation was detected only in the presence of both ALPK1 and H1b-ADP in the presence of ATP | increased in H1b-ADP injected tumor | increased upon H1b-ADP injection | increased upon H1b-ADP injection | the H1b-ADP amount declined | showed a dose-dependent response | greatly declined | increased in an ALPK1-dependent manner | increased in an ALPK1-dependent manner | – |
| O=P(O)(O)O[C@@H]1O[C@H]([C@H](O)CO)[C@@H](O)[C@H](O)[C@@H]1O [HMP-1bP, D-glycero-β-D-manno-heptose-1-phosphate] | – | – | – | – | – | – | – | increased in an ALPK1-dependent manner | increased in an ALPK1-dependent manner | Neither HBP nor HMP-1bP were able to induce a thermal shift |
